pIC50: −log10 of the molar value.
Tested on: ALP in NHAC (normal human articular chondrocytes)
Assay: Alkaline Phosphatase (ALP) activity assay: ALP staining and quantitation in NHACs (prevention of chondrocyte hypertrophy)
Format: cell-based
Details: Chondrocyte, 288 h, human IL-1 beta 10 ng/mL, 12 days; for pIC50: Fast Blue RR staining, high content imaging; for Emax: read-out: ALP in NHAC (% Efficacy)
Summary of the method: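 NHACs were plated with test compound in DMEM containing 10% FBS, and human IL-1 beta was added 5 h later at 10 ng/mL final. Cultures were kept 12 days at 37° C, 5% CO2. Cells were then fixed, ALP-stained with Fast Blue RR/Naphthol AS-MX, and hypertrophic cells were imaged and quantified by high-content imaging.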

SMILES	pIC50	Emax
Cc1cc(NC(=O)[C@]23C[C@@]2(c2cn(C)nc2C(F)(F)F)[C@H]2O[C@@H]3C[C@@H]2O)cc(C(F)(F)F)c1 (racemic) [Example 52, rac-(1R,2R,4S,5R,6S)-6-hydroxy-4-(1-methyl-3-(trifluoromethyl)-1H-pyrazol-4-yl)-N-(3-methyl-5-(trifluoromethyl)phenyl)-8-oxatricyclo[3.2.1.02,4]octane-2-carboxamide]	4.68	70%
Cc1ccc(NC(=O)[C@]23C[C@@]2(c2cn(C)nc2C(F)(F)F)[C@H]2O[C@@H]3C[C@@H]2O)cc1C(F)(F)F (racemic) [Example 51, rac-(1R,2R,4S,5R,6S)-6-hydroxy-4-(1-methyl-3-(trifluoromethyl)-1H-pyrazol-4-yl)-N-(4-methyl-3-(trifluoromethyl)phenyl)-8-oxatricyclo[3.2.1.02,4]octane-2-carboxamide]	< 4.52	45%
Cn1cc([C@@]23C[C@]2(C(=O)Nc2ccc(C(F)(F)F)cc2)[C@H]2C[C@H](O)[C@@H]3O2)c(C(F)(F)F)n1 (racemic) [Example 42, rac-(1R,2R,4S,5R,6S)-6-hydroxy-4-(1-methyl-3-(trifluoromethyl)-1H-pyrazol-4-yl)-N-(4-(trifluoromethyl)phenyl)-8-oxatricyclo[3.2.1.02,4]octane-2-carboxamide]	< 4.52	46%
COc1cc([C@@]23C[C@]2(C(=O)Nc2cccc(C(F)(F)F)c2C)[C@H]2C[C@H](O)[C@@H]3O2)ccn1 (racemic) [Example 27, rac-(1R,2R,4S,5R,6S)-6-hydroxy-4-(2-methoxypyridin-4-yl)-N-(2-methyl-3-(trifluoromethyl)phenyl)-8-oxatricyclo[3.2.1.02,4]octane-2-carboxamide]	< 4.52	0%
CCOc1ccc(NC(=O)[C@]23C[C@@]2(c2cn(C)nc2C(F)(F)F)[C@H]2O[C@@H]3C[C@@H]2O)cc1C(F)(F)F (racemic) [Example 65, rac-(1R,2R,4S,5R,6S)—N-(4-ethoxy-3-(trifluoromethyl)phenyl)-6-hydroxy-4-(1-methyl-3-(trifluoromethyl)-1H-pyrazol-4-yl)-8-oxatricyclo[3.2.1.02,4]octane-2-carboxamide]	4.92	84%
O=C(Nc1cc(C(F)(F)F)c(Cl)cn1)[C@]12C[C@@]1(c1ccnc(F)c1)[C@H]1O[C@@H]2C[C@@H]1O (racemic) [Example 5, rac-(1R,2R,4S,5R,6S)-N-(5-chloro-4-(trifluoromethyl)pyridin-2-yl)-4-(2-fluoropyridin-4-yl)-6-hydroxy-8-oxatricyclo[3.2.1.02,4]octane-2-carboxamide]	< 4.52	38%
N#Cc1ccc(NC(=O)[C@]23C[C@@]2(c2cccc(C(F)(F)F)c2)[C@H]2O[C@@H]3C[C@@H]2O)cc1C(F)(F)F (racemic) [Example 79, rac-(1R,2R,4S,5R,6S)—N-(4-cyano-3-(trifluoromethyl)phenyl)-6-hydroxy-4-(3-(trifluoromethyl)phenyl)-8-oxatricyclo[3.2.1.02,4]octane-2-carboxamide]	5.00	78%
Cn1cc([C@@]23C[C@]2(C(=O)Nc2cc(Cl)cc(C(F)(F)F)c2)[C@H]2C[C@H](O)[C@@H]3O2)c(C(F)(F)F)n1 (racemic) [Example 59, rac-(1R,2R,4S,5R,6S)-N-(3-chloro-5-(trifluoromethyl)phenyl)-6-hydroxy-4-(1-methyl-3-(trifluoromethyl)-1H-pyrazol-4-yl)-8-oxatricyclo[3.2.1.02,4]octane-2-carboxamide]	< 4.52	35%
Cn1cc([C@@]23C[C@]2(C(=O)Nc2ccc(N4CCOCC4)c(C(F)(F)F)c2)[C@H]2C[C@H](O)[C@@H]3O2)c(C(F)(F)F)n1 (racemic) [Example 64, rac-(1R,2R,4S,5R,6S)-6-hydroxy-4-(1-methyl-3-(trifluoromethyl)-1H-pyrazol-4-yl)-N-(4-morpholino-3-(trifluoromethyl)phenyl)-8-oxatricyclo[3.2.1.02,4]octane-2-carboxamide]	< 4.52	28%

Source: US12365692B2, “6-hydroxy-8-oxatricyclo[3.2.1.02,4]octane-2-carboxamide derivatives for inducing chondrogenesis for treating joint damage” (NOVARTIS AG, priority 2018, dated 2025)
